{
  "source": "patent US9969699B2",
  "about": "“Cancer cell growth inhibitor, anticancer agent, and method for screening same, as well as novel compound” (Microbial Chemistry Research Foundation, priority 2014, dated 2018)",
  "test": "Acute toxicity test, intraperitoneal administration",
  "assay_type": "in vivo, ICR mice",
  "details": "intraperitoneally once; for Organ weight Heart / Organ weight Kidney (Left) / Organ weight Kidney (Right) / Organ weight Liver / Organ weight Lung / Organ weight Spleen / Organ weight Thymus: two weeks after",
  "excerpt": "Two-weeks after the compounds represented by the Structural Formula (1) at the above concentrations were intraperitoneally administered, the mice were dissected and organs thereof were weighed.\nTwo-weeks after the compounds represented by the Structural Formula (8) at the above concentrations were intraperitoneally administered, the mice were dissected and organs thereof were weighed.",
  "data": [
    {"smiles": "Nc1ccc(Br)cc1-c1nc2ccccc2[nH]c1=O", "note": "[Structural Formula (1), 3-(2-amino-5-bromophenyl)-2(1H)-quinoxalinone]", "values": [
      {"measurement": "Organ weight Heart", "setting": "0.098 mg/kg/0.2 mL", "value": 115.0, "unit": "mg"},
      {"measurement": "Organ weight Kidney (Left)", "setting": "0.098 mg/kg/0.2 mL", "value": 139.0, "unit": "mg"},
      {"measurement": "Organ weight Kidney (Right)", "setting": "0.098 mg/kg/0.2 mL", "value": 147.0, "unit": "mg"},
      {"measurement": "Organ weight Liver", "setting": "0.098 mg/kg/0.2 mL", "value": 1047.0, "unit": "mg"},
      {"measurement": "Organ weight Lung", "setting": "0.098 mg/kg/0.2 mL", "value": 160.0, "unit": "mg"},
      {"measurement": "Organ weight Spleen", "setting": "0.098 mg/kg/0.2 mL", "value": 78.0, "unit": "mg"},
      {"measurement": "Organ weight Thymus", "setting": "0.098 mg/kg/0.2 mL", "value": 67.0, "unit": "mg"},
      {"measurement": "Organ weight Heart", "setting": "0.195 mg/kg/0.2 mL", "value": 125.0, "unit": "mg"},
      {"measurement": "Organ weight Kidney (Left)", "setting": "0.195 mg/kg/0.2 mL", "value": 175.0, "unit": "mg"},
      {"measurement": "Organ weight Kidney (Right)", "setting": "0.195 mg/kg/0.2 mL", "value": 184.0, "unit": "mg"},
      {"measurement": "Organ weight Liver", "setting": "0.195 mg/kg/0.2 mL", "value": 1590.0, "unit": "mg"},
      {"measurement": "Organ weight Lung", "setting": "0.195 mg/kg/0.2 mL", "value": 169.0, "unit": "mg"},
      {"measurement": "Organ weight Spleen", "setting": "0.195 mg/kg/0.2 mL", "value": 121.0, "unit": "mg"},
      {"measurement": "Organ weight Thymus", "setting": "0.195 mg/kg/0.2 mL", "value": 83.0, "unit": "mg"},
      {"measurement": "Organ weight Heart", "setting": "0.39 mg/kg/0.2 mL", "value": 106.0, "unit": "mg"},
      {"measurement": "Organ weight Kidney (Left)", "setting": "0.39 mg/kg/0.2 mL", "value": 157.0, "unit": "mg"},
      {"measurement": "Organ weight Kidney (Right)", "setting": "0.39 mg/kg/0.2 mL", "value": 168.0, "unit": "mg"},
      {"measurement": "Organ weight Liver", "setting": "0.39 mg/kg/0.2 mL", "value": 1350.0, "unit": "mg"},
      {"measurement": "Organ weight Lung", "setting": "0.39 mg/kg/0.2 mL", "value": 160.0, "unit": "mg"},
      {"measurement": "Organ weight Spleen", "setting": "0.39 mg/kg/0.2 mL", "value": 95.0, "unit": "mg"},
      {"measurement": "Organ weight Thymus", "setting": "0.39 mg/kg/0.2 mL", "value": 74.0, "unit": "mg"},
      {"measurement": "Organ weight Heart", "setting": "0.78 mg/kg/0.2 mL", "value": 115.0, "unit": "mg"},
      {"measurement": "Organ weight Kidney (Left)", "setting": "0.78 mg/kg/0.2 mL", "value": 163.0, "unit": "mg"},
      {"measurement": "Organ weight Kidney (Right)", "setting": "0.78 mg/kg/0.2 mL", "value": 159.0, "unit": "mg"},
      {"measurement": "Organ weight Liver", "setting": "0.78 mg/kg/0.2 mL", "value": 1263.0, "unit": "mg"},
      {"measurement": "Organ weight Lung", "setting": "0.78 mg/kg/0.2 mL", "value": 167.0, "unit": "mg"},
      {"measurement": "Organ weight Spleen", "setting": "0.78 mg/kg/0.2 mL", "value": 116.0, "unit": "mg"},
      {"measurement": "Organ weight Thymus", "setting": "0.78 mg/kg/0.2 mL", "value": 78.0, "unit": "mg"},
      {"measurement": "Organ weight Heart", "setting": "1.56 mg/kg/0.2 mL", "value": 134.0, "unit": "mg"},
      {"measurement": "Organ weight Kidney (Left)", "setting": "1.56 mg/kg/0.2 mL", "value": 162.0, "unit": "mg"},
      {"measurement": "Organ weight Kidney (Right)", "setting": "1.56 mg/kg/0.2 mL", "value": 169.0, "unit": "mg"},
      {"measurement": "Organ weight Liver", "setting": "1.56 mg/kg/0.2 mL", "value": 1472.0, "unit": "mg"},
      {"measurement": "Organ weight Lung", "setting": "1.56 mg/kg/0.2 mL", "value": 178.0, "unit": "mg"},
      {"measurement": "Organ weight Spleen", "setting": "1.56 mg/kg/0.2 mL", "value": 103.0, "unit": "mg"},
      {"measurement": "Organ weight Thymus", "setting": "1.56 mg/kg/0.2 mL", "value": 85.0, "unit": "mg"},
      {"measurement": "Organ weight Heart", "setting": "3.125 mg/kg/0.2 mL", "value": 135.0, "unit": "mg"},
      {"measurement": "Organ weight Kidney (Left)", "setting": "3.125 mg/kg/0.2 mL", "value": 193.0, "unit": "mg"},
      {"measurement": "Organ weight Kidney (Right)", "setting": "3.125 mg/kg/0.2 mL", "value": 191.0, "unit": "mg"},
      {"measurement": "Organ weight Liver", "setting": "3.125 mg/kg/0.2 mL", "value": 1558.0, "unit": "mg"},
      {"measurement": "Organ weight Lung", "setting": "3.125 mg/kg/0.2 mL", "value": 179.0, "unit": "mg"},
      {"measurement": "Organ weight Spleen", "setting": "3.125 mg/kg/0.2 mL", "value": 150.0, "unit": "mg"},
      {"measurement": "Organ weight Thymus", "setting": "3.125 mg/kg/0.2 mL", "value": 99.0, "unit": "mg"},
      {"measurement": "Organ weight Heart", "setting": "6.25 mg/kg/0.2 mL", "value": 114.0, "unit": "mg"},
      {"measurement": "Organ weight Kidney (Left)", "setting": "6.25 mg/kg/0.2 mL", "value": 167.0, "unit": "mg"},
      {"measurement": "Organ weight Kidney (Right)", "setting": "6.25 mg/kg/0.2 mL", "value": 163.0, "unit": "mg"},
      {"measurement": "Organ weight Liver", "setting": "6.25 mg/kg/0.2 mL", "value": 1412.0, "unit": "mg"},
      {"measurement": "Organ weight Lung", "setting": "6.25 mg/kg/0.2 mL", "value": 178.0, "unit": "mg"},
      {"measurement": "Organ weight Spleen", "setting": "6.25 mg/kg/0.2 mL", "value": 104.0, "unit": "mg"},
      {"measurement": "Organ weight Thymus", "setting": "6.25 mg/kg/0.2 mL", "value": 68.0, "unit": "mg"},
      {"measurement": "Organ weight Heart", "setting": "12.5 mg/kg/0.2 mL", "value": 107.0, "unit": "mg"},
      {"measurement": "Organ weight Kidney (Left)", "setting": "12.5 mg/kg/0.2 mL", "value": 161.0, "unit": "mg"},
      {"measurement": "Organ weight Kidney (Right)", "setting": "12.5 mg/kg/0.2 mL", "value": 163.0, "unit": "mg"},
      {"measurement": "Organ weight Liver", "setting": "12.5 mg/kg/0.2 mL", "value": 1120.0, "unit": "mg"},
      {"measurement": "Organ weight Lung", "setting": "12.5 mg/kg/0.2 mL", "value": 159.0, "unit": "mg"},
      {"measurement": "Organ weight Spleen", "setting": "12.5 mg/kg/0.2 mL", "value": 98.0, "unit": "mg"},
      {"measurement": "Organ weight Thymus", "setting": "12.5 mg/kg/0.2 mL", "value": 63.0, "unit": "mg"},
      {"measurement": "Organ weight Heart", "setting": "25 mg/kg/0.2 mL", "value": 111.0, "unit": "mg"},
      {"measurement": "Organ weight Kidney (Left)", "setting": "25 mg/kg/0.2 mL", "value": 157.0, "unit": "mg"},
      {"measurement": "Organ weight Kidney (Right)", "setting": "25 mg/kg/0.2 mL", "value": 170.0, "unit": "mg"},
      {"measurement": "Organ weight Liver", "setting": "25 mg/kg/0.2 mL", "value": 1316.0, "unit": "mg"},
      {"measurement": "Organ weight Lung", "setting": "25 mg/kg/0.2 mL", "value": 147.0, "unit": "mg"},
      {"measurement": "Organ weight Spleen", "setting": "25 mg/kg/0.2 mL", "value": 98.0, "unit": "mg"},
      {"measurement": "Organ weight Thymus", "setting": "25 mg/kg/0.2 mL", "value": 92.0, "unit": "mg"},
      {"measurement": "Organ weight Heart", "setting": "50 mg/kg/0.4 mL", "value": 120.0, "unit": "mg"},
      {"measurement": "Organ weight Kidney (Left)", "setting": "50 mg/kg/0.4 mL", "value": 166.0, "unit": "mg"},
      {"measurement": "Organ weight Kidney (Right)", "setting": "50 mg/kg/0.4 mL", "value": 173.0, "unit": "mg"},
      {"measurement": "Organ weight Liver", "setting": "50 mg/kg/0.4 mL", "value": 1747.0, "unit": "mg"},
      {"measurement": "Organ weight Lung", "setting": "50 mg/kg/0.4 mL", "value": 168.0, "unit": "mg"},
      {"measurement": "Organ weight Spleen", "setting": "50 mg/kg/0.4 mL", "value": 132.0, "unit": "mg"},
      {"measurement": "Organ weight Thymus", "setting": "50 mg/kg/0.4 mL", "value": 69.0, "unit": "mg"},
      {"measurement": "toxicity", "setting": "0.098 to 50 mg/kg, observed 2 weeks", "value": "no significant toxicity"}
    ]}
  ]
}
